In EP0187355A1, “Process for preparing beta-lactam antibiotics” (E.R. Squibb & Sons, Inc., priority 1981, dated 1982):
Where a name gives a salt, the structure may show the parent alone.

What was measured:
Assay in all cases: MIC, agar dilution
Type in all cases: cell-based
[1] = test system: Acinetobacter calcoaceticus, 8333; details: Acinetobacter calcoaceticus, 8333, 18 h, K-10 agar, 10^4 CFU, 37°C, read-out: M.I.C.
Protocol: (§1) The following methodology is used to determine the minimum inhibitory concentration (hereinafter referred to as MIC) of the […] of this invention.
(§2) The test organisms are grown in approximately 15-20 ml of Antibiotic Assay broth (Difco) by inoculating (in tubes) the broth with a loopful of the organism from a BHI (Difco) agar slant. The inoculated tubes are incubated at 37°C for 18 to 20 hours. These cultures are assumed to contain 10^9 colony forming units (hereinafter CFU) per milliliter. The cultures are diluted 1:100 to give a final inoculum level of 10^4 CFU; dilutions are made with K-10 broth^*.
(§3) The compounds are dissolved in the appropriate diluent at a concentration of 1000 µg/ml. Twofold dilutions are made in K-10 broth resulting in a range from 1000 µg/ml to 0.5 µg/ml. 1.5 ml of each dilution is placed into individual square petri dishes to which 13.5 ml of K-10 agar^** is added. The final drug concentration in the agar ranges from 100 µg/ml to 0.05 µg/ml. Organism growth control plates containing agar only are prepared and inoculated before and after the test plates. The organisms are applied to the agar surface of each plate with the Denley Multipoint Inoculator (which delivers approximately 0.001 ml of each organism) resulting in a final inoculum level of 10^4 CFU on the agar surface.
(§4) The plates are incubated at 37 °C for 18 hours and the MIC's are determined. The MIC is the lowest concentration of compound inhibiting growth of the organism.
(§5) The tables that follow are tabulated results obtained when the B-lactams of this invention are tested against various organisms. The number following each organism refers to the number of the organism in the collection of E. R. Squibb & Sons,.Inc., Princeton, New Jersey. […] The symbol "N.T." means not tested.

[2] = test system: Citrobacter freundii, 9518; details: K-10 agar, 10^4 CFU, 37°C, 18 hours, read-out: M.I.C.
Protocol: as §1, §2, §3, §4, §5

[3] = test system: Enterobacter aerogenes, 10078; details: Klebsiella aerogenes, 10078, 18 h, Enterobacter aerogenes, 10078; K-10 agar, 10^4 CFU, 37°C, 18 hours; read-out: M.I.C.
Protocol: as §1, §2, §3, §4, §5

Escherichia coli, 10857 = details: Escherichia coli, 10857, 18 h, K-10 agar, 10^4 CFU, 37°C
Protocol: as §1, §2, §3, §4, §5

Escherichia coli, 10896 = details: K-10 agar, 10^4 CFU, 37°C, 18 hours
Protocol: as §1, §2, §3, §4, §5

Escherichia coli, 10909 = details: K-10 agar, 10^4 CFU, 37°C, 18 hours
Protocol: as §1, §2, §3, §4, §5

Escherichia coli, 8294 = details: Escherichia coli, 8294, 18 h, K-10 agar, 10^4 CFU, 37°C
Protocol: as §1, §2, §3, §4, §5

[4] = test system: Klebsiella aerogenes, 10440; details: K-10 agar, 10^4 CFU, 37°C, 18 hours, read-out: M.I.C.
Protocol: as §1, §2, §3, §4, §5

[5] = test system: Klebsiella pneumoniae, 9527; details: Klebsiella pneumoniae, 9527, 18 h, K-10 agar, 10^4 CFU, 37°C, read-out: M.I.C.
Protocol: as §1, §2, §3, §4, §5

Proteus mirabilis, 3855 = details: Proteus mirabilis, 3855, 18 h, K-10 agar, 10^4 CFU, 37°C, read-out: M.I.C.
Protocol: as §1, §2, §3, §4, §5

Proteus rettgeri, 8479 = details: Providencia rettgeri, K-10 agar, 10^4 CFU, 37°C, 18 hours, read-out: M.I.C.
Protocol: as §1, §2, §3, §4, §5

Proteus vulgaris, 9416 = details: K-10 agar, 10^4 CFU, 37°C, 18 hours, read-out: M.I.C.
Protocol: as §1, §2, §3, §4, §5

[6] = test system: Pseudomonas aeruginosa, 8329; details: K-10 agar, 10^4 CFU, 37°C, 18 hours, read-out: M.I.C.
Protocol: as §1, §2, §3, §4, §5

[7] = test system: Pseudomonas aeruginosa, 9545; details: Pseudomonas aeruginosa, 9545, 18 h, K-10 agar, 10^4 CFU, 37°C, read-out: M.I.C.
Protocol: as §1, §2, §3, §4, §5

Salmonella typhosa, 1195 = details: Salmonella enterica, TYPHOSA, 18 h, K-10 agar, 10^4 CFU, 37°C
Protocol: as §1, §2, §3, §4, §5

[8] = test system: Serratia marcescens, 9783; details: K-10 agar, 10^4 CFU, 37°C; for MIC: Serratia marcescens, 9783, 18 h, read-out: M.I.C.
Protocol: as §1, §2, §3, §4, §5

Shigella sonnei, 8449 = details: Shigella sonnei, 8449, 18 h, K-10 agar, 10^4 CFU, 37°C
Protocol: as §1, §2, §3, §4, §5

[9] = test system: Staphylococcus aureus, 10165; details: Staphylococcus aureus, 10165; K-10 agar, 10^4 CFU, 37°C, 18 hours; read-out: M.I.C.
Protocol: as §1, §2, §3, §4, §5

[10] = test system: Staphylococcus aureus, 1276; details: Staphylococcus aureus, 1276; K-10 agar, 10^4 CFU, 37°C, 18 hours; read-out: M.I.C.
Protocol: as §1, §2, §3, §4, §5

[11] = test system: Staphylococcus aureus, 2399; details: Staphylococcus aureus, 2399, 18 h, Staphylococcus aureus, 2399; K-10 agar, 10^4 CFU, 37°C, 18 hours; read-out: M.I.C.
Protocol: as §1, §2, §3, §4, §5

[12] = test system: Staphylococcus aureus, 2400; details: Staphylococcus aureus, 2400; K-10 agar, 10^4 CFU, 37°C, 18 hours; read-out: M.I.C.
Protocol: as §1, §2, §3, §4, §5

[13] = test system: Streptococcus faecalis, 9011; details: Enterococcus faecalis; Streptococcus faecalis, 9011; K-10 agar, 10^4 CFU, 37°C, 18 hours; read-out: M.I.C.
Protocol: as §1, §2, §3, §4, §5

[14] = test system: Enterobacter cloacae, 8236; details: Enterobacter cloacae, 8236, 18 h, K-10 agar, 10^4 CFU, 37°C
Protocol: as §1, §2, §3
(§6) The MIC is the lowest concentration of compound inhibiting growth of the organism.
(§7) The number following each organism refers to the number of the organism in the collection of E. R. Squibb & Sons,.Inc., Princeton, New Jersey. […] The symbol "N.T." means not tested.

Micrococcus luteus, 2495 = details: K-10 agar, 10^4 CFU, 37°C; for MIC: Micrococcus luteus, 2495, 18 h, read-out: M.I.C.
Protocol: as §1, §2, §3, §6, §7

[15] = test system: Streptococcus agalactiae, 9287; details: Streptococcus agalactiae, 9287, 18 h, K-10 agar, 10^4 CFU, 37°C, read-out: M.I.C.
Protocol: as §1, §2, §3, §6, §7

SMILES	MIC [1]	MIC [2]	MIC [3]	MIC (Escherichia coli, 10857)	MIC (Escherichia coli, 10896)	MIC (Escherichia coli, 10909)	MIC (Escherichia coli, 8294)	MIC [4]	MIC [5]	MIC (Proteus mirabilis, 3855)	MIC (Proteus rettgeri, 8479)	MIC (Proteus vulgaris, 9416)	MIC [6]	MIC [7]	MIC (Salmonella typhosa, 1195)	MIC (Shigella sonnei, 8449)	MIC [9]	MIC [10]	MIC [11]	MIC [12]	other results
C[C@@H]1[C@H](NC(=O)[C@H](NC(=O)N2CCN(NC(=O)OCc3ccccc3)C(=O)C2=O)c2ccccc2)C(=O)N1S(=O)(=O)O (relative stereo) [Example 20, [3S-[3α(R*),4α]]-[4-[[[2-[(4-methyl-2-oxo-1-sulfo-3-azetidinyl)amino]-2-oxo-1-phenylethyl]amino]carbonyl]-2,3-dioxo-1-piperazinyl]carbamic acid, phenylmethyl ester, potassium salt]	50 µg/mL	3.1 µg/mL	6.3 µg/mL	< 0.05 µg/mL	0.8 µg/mL	0.4 µg/mL	3.1 µg/mL	12.5 µg/mL	0.4 µg/mL	1.6 µg/mL	1.6 µg/mL	< 0.05 µg/mL	100 µg/mL	3.1 µg/mL	1.6 µg/mL	1.6 µg/mL	> 100 µg/mL	6.3 µg/mL	6.3 µg/mL	25 µg/mL	MIC [8]: 3.1 µg/mL; MIC [13]: > 100 µg/mL; MIC [14]: 1.6 µg/mL; MIC (Micrococcus luteus, 2495): 3.1 µg/mL; MIC [15]: 3.1 µg/mL
C[C@@H]1[C@H](NC(=O)[C@H](NC(=O)N2CCN(N=Cc3ccco3)C2=O)c2ccccc2)C(=O)N1S(=O)(=O)O (relative stereo) [Example 21, [3S-[3α(R*),4α]]-3-[[[[[3-[(2-furanylmethylene)-amino]-2-oxo-1-imidazolidinyl]carbonyl]-amino]phenylacetyl]amino]-4-methyl-2-oxo-1-azetidinesulfonic acid, potassium salt]	50 µg/mL	1.6 µg/mL	3.1 µg/mL	< 0.05 µg/mL	0.4 µg/mL	0.2 µg/mL	1.6 µg/mL	1.6 µg/mL	0.2 µg/mL	0.8 µg/mL	1.6 µg/mL	< 0.05 µg/mL	12.5 µg/mL	12.5 µg/mL	0.4 µg/mL	0.8 µg/mL	100 µg/mL	3.1 µg/mL	3.1 µg/mL	6.3 µg/mL	MIC [8]: 3.1 µg/mL; MIC [13]: > 100 µg/mL; MIC [14]: 1.6 µg/mL; MIC (Micrococcus luteus, 2495): 3.1 µg/mL; MIC [15]: 0.4 µg/mL
CCN1CCN(C(=O)N[C@@H](C(=O)N[C@@H]2C(=O)N(S(=O)(=O)O)[C@@H]2C)c2ccccc2)C(=O)C1=O (relative stereo) [Example 22, [3S-[3α(R*),4α]]-3-[[[[(4-ethyl-2,3-dioxo-1-piperazinyl)carbonyl]amino]phenylacetyl]-amino]-4-methyl-2-oxo-1-azetidinesulfonic acid, potassium salt]	12.5 µg/mL	3.1 µg/mL	6.3 µg/mL	0.1 µg/mL	1.6 µg/mL	0.4 µg/mL	3.1 µg/mL	12.5 µg/mL	0.1 µg/mL	0.4 µg/mL	0.2 µg/mL	< 0.05 µg/mL	12.5 µg/mL	6.3 µg/mL	0.4 µg/mL	1.6 µg/mL	100 µg/mL	6.3 µg/mL	6.3 µg/mL	25 µg/mL	MIC [8]: 6.3 µg/mL; MIC [13]: > 100 µg/mL; MIC [14]: 0.8 µg/mL; MIC (Micrococcus luteus, 2495): 6.3 µg/mL; MIC [15]: 6.3 µg/mL
C[C@H]1[C@H](NC(=O)OCc2ccccc2)C(=O)N1S(=O)(=O)O [Example 2, (3S-trans)-4-Methyl-2-oxo-3-[[(phenylmethoxy)carbonyl]-amino]-1-azetidinesulfonic acid, potassium salt]	> 100 µg/mL	> 100 µg/mL	> 100 µg/mL	> 100 µg/mL	> 100 µg/mL	> 100 µg/mL	> 100 µg/mL	> 100 µg/mL	> 100 µg/mL	> 100 µg/mL	> 100 µg/mL	> 100 µg/mL	> 100 µg/mL	> 100 µg/mL	> 100 µg/mL	> 100 µg/mL	> 100 µg/mL	100 µg/mL	100 µg/mL	100 µg/mL	MIC [8]: > 100 µg/mL; MIC [13]: > 100 µg/mL; MIC [14]: > 100 µg/mL; MIC (Micrococcus luteus, 2495): 100 µg/mL; MIC [15]: 100 µg/mL
C[C@H]1[C@H](NC(=O)Cc2ccccc2)C(=O)N1S(=O)(=O)O [Example 3, (3S-trans)-4-Methyl-2-oxo-3-[(phenylacetyl)amino]-1-azetidinesulfonic acid, potassium salt]	> 100 µg/mL	100 µg/mL	> 100 µg/mL	50 µg/mL	50 µg/mL	25 µg/mL	100 µg/mL	100 µg/mL	100 µg/mL	100 µg/mL	50 µg/mL	100 µg/mL	> 100 µg/mL	50 µg/mL	50 µg/mL	50 µg/mL	100 µg/mL	50 µg/mL	50 µg/mL	50 µg/mL	MIC [8]: 50 µg/mL; MIC [13]: > 100 µg/mL; MIC [14]: > 100 µg/mL; MIC (Micrococcus luteus, 2495): 25 µg/mL; MIC [15]: 25 µg/mL
CON=C(C(=O)NC1C(=O)N(S(=O)(=O)O)C1C)c1csc(N)n1 (stereo not drawn) [Example 5, [3S-[3α(Z),4β]]-3-[[2-Amino-4-thiazolyl) (methoxyimino)-acetyl]amino]-4-methyl-2-oxo-1-azetidinesulfonic acid, potassium salt]	12.5 µg/mL	0.1 µg/mL	0.4 µg/mL	< 0.05 µg/mL	0.1 µg/mL	< 0.05 µg/mL	0.1 µg/mL	0.2 µg/mL	0.1 µg/mL	0.1 µg/mL	< 0.05 µg/mL	< 0.05 µg/mL	100 µg/mL	0.8 µg/mL	< 0.05 µg/mL	0.1 µg/mL	> 100 µg/mL	100 µg/mL	100 µg/mL	50 µg/mL	M.I.C. ([8]; 18 hours, potassium salt): 0.8 µg/mL; MIC [13]: > 100 µg/mL; MIC [14]: 0.2 µg/mL; M.I.C. (Micrococcus luteus, 2495; 18 hours, potassium salt): 3.1 µg/mL; MIC [15]: 3.1 µg/mL
